Broadly, the EC50 is the midpoint of the concentration-response curve.

The first experiment has as its system HT-1080 cells. Description: HT-1080 cell viability assay (ferroptosis induced by RSL3, Cell Titer-Glo). It is filed as cell-based. The note with it: Homo sapiens, HT-1080, 20 h, ferroptosis inducer RSL3, 20 hours, ferroptosis inhibitory activity, Table 2. Summed up:
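Cells seeded overnight, then co-treated with RSL3 and compound (3-fold, 10-point dilution, top 1.1 μM) for 20 hours. Viability by CellTiter-Glo luminescence, normalized to untreated controls; EC50 from sigmoidal non-linear regression.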
Background: In ATP-based viability assays light output follows the ATP content of the culture.
The molecule `CC(C)C1CCN(c2ncc(NC[C@H]3CC[C@@H](N)CC3)cn2)CC1` [Compound 361, N-(((1s,4s)-4-aminocyclohexyl)methyl)-2-(4-isopropylpiperidin-1-yl)pyrimidin-5-amine] returned an EC50 of 0.0001 to 0.1 µM. On the same count and under the same terms, in the case of `CC1(C)CCC(c2ccc(NC3CCC(CNC(=O)[C@@H]4CNC(=O)N4)CC3)cc2)CC1` (single isomer, unassigned) [Compound 107A] it was 0.0001 to 0.1 µM. Same read-out and setting: in the case of `CC1(C)CCC(c2ccc(NC3CC(N)C3)cc2)CC1` (stereo not drawn) [Compound 94, N1-(4-(4,4-dimethylcyclohexyl)phenyl)cyclobutane-1,3-diamine] it was 0.0001 to 0.1 µM. The same measure, in the same setting: in the case of `CC(C)(C)c1ccc(NC(CCO)CCO)cc1` [Compound 234, 3-((4-(tert-butyl)phenyl)amino) pentane-1,5-diol] it was 1 to 10 µM; in that of `CCc1c(C)cc(NC2CCC(N)CC2)cc1C` (stereo not drawn) [Compound 281, N1-(4-ethyl-3,5-dimethylphenyl)cyclohexane-1,4-diamine], 0.0001 to 0.1 µM; in that of `Cc1nc(N2CC(C)OC(C)C2)ccc1NC1CCC(N)CC1` (stereo not drawn) [Compound 443, N1-(6-(2,6-dimethylmorpholino)-2-methylpyridin-3-yl)cyclohexane-1,4-diamine], 0.1 to 1 µM. `NC1CCC(Nc2cccc3ccccc23)CC1` (stereo not drawn) [Compound 238, N1-(naphthalen-1-yl)cyclohexane-1,4-diamine] had a half-maximal effective concentration (EC50) of 0.0001 to 0.1 µM. `C[C@@H]1CN(c2ccc3cc(NC4CC5(CC(N)C5)C4)ccc3n2)C[C@H](C)O1` (stereo partly drawn) [Compound 565, N2-(2-((2S,6R)-2,6-dimethylmorpholino)quinolin-6-yl)spiro[3.3]heptane-2,6-diamine] had an EC50 of 0.0001 to 0.1 µM. Same read-out and setting: in the case of `CC1(C)CN(c2ccc(NC[C@H]3CC[C@H](N)CC3)cc2)CC(C)(C)O1` [Compound 445, N-(((1r,4r)-4-aminocyclohexyl)methyl)-4-(2,2,6,6-tetramethylmorpholino)aniline] it was 0.0001 to 0.1 µM; in that of `CC1(C)CCC(c2ccc(NC3CCC(C(N)=O)C3)cc2)CC1` (single isomer, unassigned) [Compound 146A, 3-((4-(4,4-dimethylcyclohexyl)phenyl)amino)cyclopentane-1-carboxamide], 0.0001 to 0.1 µM. Still for that read-out and setting: in the case of `COc1cc(N2CC(C)OC(C)C2)ccc1NC[C@H]1CC[C@H](N)CC1` (stereo partly drawn) [Compound 497, N-(((1r,4r)-4-aminocyclohexyl)methyl)-4-(2,6-dimethylmorpholino)-2-methoxyaniline] it was 0.0001 to 0.1 µM. Same read-out and setting: as for `CC(C)(C)c1ccc(NC2CCC(N)C(O)C2)cc1` (stereo not drawn) [Compound 327, 2-amino-5-((4-(tert-butyl)phenyl)amino)cyclohexan-1-ol], the figure is 0.1 to 1 µM; as for `O=C1CC(C(=O)NCC2CCC(Nc3ccc(N4CCC(C(F)(F)F)CC4)cc3)CC2)CN1` (stereo not drawn) [Compound 2, 5-oxo-N-((4-((4-(4-(trifluoromethyl)piperidin-1-yl)phenyl)amino)cyclohexyl)methyl)pyrrolidine-3-carboxamide], 0.0001 to 0.1 µM. In turn, `Cc1cc(N2CCCCC2)ccc1NC1CC2(CC(N)C2)C1` (stereo not drawn) [Compound 380, N2-(2-methyl-4-(piperidin-1-yl)phenyl)spiro[3.3]heptane-2,6-diamine] returned an EC50 of 0.0001 to 0.1 µM. The same measure, in the same setting: in the case of `COC1(C(F)(F)F)CCN(c2ccc(NC[C@H]3CC[C@H](N)CC3)cc2)CC1` [Compound 459, N-(((1r,4r)-4-aminocyclohexyl)methyl)-4-(4-methoxy-4-(trifluoromethyl)piperidin-1-yl)aniline] it was 0.0001 to 0.1 µM; in that of `Cc1ccc(NC2CCC(N)CC2)cc1` (stereo not drawn) [Compound 128, N1-(p-tolyl)cyclohexane-1,4-diamine], 0.1 to 1 µM; in that of `Cc1nc(N2CCC3(CCOCC3)C2)ccc1NC1CC2(CC(N)C2)C1` (stereo not drawn) [Compound 507, N2-(2-methyl-6-(8-oxa-2-azaspiro[4.5]decan-2-yl)pyridin-3-yl)spiro[3.3]heptane-2,6-diamine], 0.1 to 1 µM. Same read-out and setting: in the case of `CC1(C)CN(c2ccc(NC[C@H]3CC[C@H](N)CC3)cc2F)CC(C)(C)O1` [Compound 513, N-(((1r,4r)-4-aminocyclohexyl)methyl)-3-fluoro-4-(2,2,6,6-tetramethylmorpholino)aniline] it was 0.0001 to 0.1 µM. The same measure, in the same setting: as for `NC1CCC(Nc2ccc(N3CCC(C(F)(F)F)CC3)c(Cl)c2)CC1` (stereo not drawn) [Compound 67, N1-(3-chloro-4-(4-(trifluoromethyl)piperidin-1-yl)phenyl)cyclohexane-1,4-diamine], the figure is 0.0001 to 0.1 µM.

For the molecule `CC(CN1CCCC1)Nc1ccc(C2CCC(C)(C)CC2)cc1` (stereo not drawn) [Compound 297, 4-(4,4-dimethylcyclohexyl)-N-(1-(pyrrolidin-1-yl)propan-2-yl)aniline], the EC50 fell in the range of 0.0001 to 0.1 µM. `CC1CCN(c2ncc(NC3C4CC5CC3CC(C(N)=O)(C5)C4)cn2)CC1` (stereo not drawn) [Compound 405, 4-((2-(4-methylpiperidin-1-yl)pyrimidin-5-yl)amino)adamantane-1-carboxamide] displayed an EC50 of 0.0001 to 0.1 µM. `NC1CC2(C1)CC(Nc1ccc(N3CCC(C(F)(F)F)CC3)nc1)C2` (stereo not drawn) [Compound 397, N2-(6-(4-(trifluoromethyl)piperidin-1-yl)pyridin-3-yl)spiro[3.3]heptane-2,6-diamine] returned an EC50 of 0.0001 to 0.1 µM. On the same count and under the same terms, as for `CC(C)(C)c1ccc(NC2CCC(NC(=O)C3CNC(=O)C3)CC2)cc1` (single isomer, unassigned) [Compound 114A, N-(4-((4-(tert-butyl)phenyl)amino)cyclohexyl)-5-oxopyrrolidine-3-carboxamide], the figure is 0.1 to 1 µM.

The same experiment, now with this note: Homo sapiens, HT-1080, 20 h, ferroptosis inducer RSL3, 20 hours, ferroptosis inhibitory activity, Table 3.
As to `Cc1nc(N2CCC3(CCCOC3)CC2)ccc1NC[C@H]1CC[C@H](N)CC1` [Compound 581, N-(((1r,4r)-4-aminocyclohexyl)methyl)-2-methyl-6-(2-oxa-9-azaspiro [5.5]undecan-9-yl)pyridin-3-amine], the EC50 is 0.0001 to 0.1 µM.

As for `Cc1nc(N2CC[Si](C)(C)CC2)ccc1NC1CC2(CC(O)C2)C1` (stereo not drawn) [Compound 625, 6-((6-(4,4-dimethyl-1,4-azasilinan-1-yl)-2-methylpyridin-3-yl)amino)spiro[3.3]heptan-2-ol], the EC50 lay within 0.0001 to 0.1 µM. For `CC[C@@H]1CN(c2ccc(NC3CC4CCC(C3)N4)c(C)n2)C[C@H](CC)O1` (stereo partly drawn) [Compound 657, N-(6-((2S,6R)-2,6-diethylmorpholino)-2-methylpyridin-3-yl)-8-azabicyclo[3.2.1]octan-3-amine], the EC50 is 0.0001 to 0.1 µM. In turn, `CC[C@@H]1CN(c2ccc(NC3CC4(C3)CC(C(N)=O)C4)c(C)n2)C[C@H](CC)O1` (stereo partly drawn) [Compound 575, 6-((6-((2S,6R)-2,6-diethylmorpholino)-2-methylpyridin-3-yl)amino)spiro[3.3]heptane-2-carboxamide] came in with an EC50 of 0.0001 to 0.1 µM.

With `C[C@@H]1CN(c2ccc(NC3CC4(CC(N)C4)C3)c(OC(F)F)n2)C[C@H](C)O1` (stereo partly drawn) [Compound 637, N^2-(2-(difluoromethoxy)-6-((25,6R)-2,6-dimethylmorpholino)pyridin-3-yl)spiro[3.3]heptane-2,6-diamine], the EC50 was 0.0001 to 0.1 µM. For `CCCNc1ccc2cc(NC3CC4(CC(N)C4)C3)ccc2c1` (stereo not drawn) [Compound 651, N^2-(6-aminospiro [3.3]heptan-2-yl)-N^6-propylnaphthalene-2,6-diamine], the EC50 fell in the range of 0.0001 to 0.1 µM.

The experiment is the same for the next values; noted with them: Homo sapiens, ferroptosis inducer RSL3, 20 hours, ferroptosis inhibitory activity, Table 2.
For `CCC(C)(C)c1ccc(NC2CCC(N)CC2)cc1` (single isomer, unassigned) [Compound 232A, N1-(4-(tert-pentyl)phenyl)cyclohexane-1,4-diamine], the EC50 lay within 0.0001 to 0.1 µM.

(Values after patent US20240360114A1 (SIRONAX LTD., priority 2021, published 2024).)
